Source: paper PMC8851638 (ACS Omega, 2022)
Values after ≈ are worked out from the molar mass of the structure shown. Values joined by “and” are separate entries in the source; they are usually repeats but may differ in a detail not shown here. Equal values may be shown once.

Columns and labels:
S. aureus (MDR00231) [1] = assay: Agar well-diffusion antimicrobial sensitivity assay; type: cell-based, Staphylococcus aureus; details: for Inhibition Zone (IZ): S. aureus, 100 mg/mL in DMSO, 50 μL per well, ± SD
K. pneumoniae (MDR00244) [2] = assay: as above; type: cell-based; details: 100 mg/mL in DMSO, 50 μL per well, ± SD
B. subtilis (MDR00423) [3] = assay: as above; type: cell-based; details: 100 mg/mL in DMSO, 50 μL per well, ± SD
A. baumannii (MDR00521) [4] = assay: as above; type: cell-based; details: 100 mg/mL in DMSO, 50 μL per well, ± SD
[5] = tested on: C. albicans200 (MDR00200); assay: as above; type: cell-based, Candida albicans; details: for Inhibition Zone (IZ): C. albicans200, 100 mg/mL in DMSO, 50 μL per well, ± SD
[6] = tested on: C. albicans100 (MDR00100); assay: as above; type: cell-based, Candida albicans; details: for Inhibition Zone (IZ): C. albicans100, 100 mg/mL in DMSO, 50 μL per well, ± SD
E. coli (MDR00501) [7] = assay: as above; type: cell-based; details: for Inhibition Zone (IZ): E. coli, 100 mg/mL in DMSO, 50 μL per well, ± SD
[8] = tested on: S. epidermidis (MDR00223); assay: as above; type: cell-based, Staphylococcus epidermidis; details: for Inhibition Zone (IZ): S. epidermidis, 100 mg/mL in DMSO, 50 μL per well, ± SD
[9] = tested on: clinical pathogenic isolates; assay: Single-step resistance selection, whole panel; type: cell-based; details: 4 × MIC
[10] = tested on: BNL: mouse normal liver cells; assay: In vitro cytotoxicity on normal cell line; type: cell-based
[11] = In vitro cytotoxicity on normal cell line; type: cell-based, mouse; details: mouse, BNL normal liver cells
[12] = tested on: S. epidermidis (MDR00223); assay: MIC and MBC by broth microdilution; type: cell-based, Staphylococcus epidermidis
C. albicans100 = assay: Single-step resistance selection; type: cell-based, Candida albicans; details: 4 × MIC, 48 h
A. baumannii (MDR00521) [13] = assay: MIC and MBC by broth microdilution; type: cell-based; details: ratio in parentheses
C. albicans200 [14] = assay: Single-step resistance selection; type: cell-based, Candida albicans; details: 4 × MIC, 48 h
S. aureus [15] = assay: Single-step resistance selection; type: cell-based, Staphylococcus aureus; details: 4 × MIC, 48 h
S. aureus (MDR00231) [16] = assay: MIC and MBC by broth microdilution; type: cell-based, Staphylococcus aureus
[17] = tested on: C. albicans200 (MDR00200); assay: MIC and MFC by broth microdilution; type: cell-based, Candida albicans
[18] = tested on: C. albicans100 (MDR00100); assay: MIC and MFC by broth microdilution; type: cell-based, Candida albicans
A. baumannii [19] = assay: Single-step resistance selection; type: cell-based; details: 4 × MIC, 48 h
K. pneumoniae = assay: Single-step resistance selection; type: cell-based; details: 4 × MIC, 48 h
Gram-negative bacteria = assay: MIC broth microdilution, Gram-negative panel; type: cell-based; details: Gram-negative bacteria used in this study
S. aureus [20] = assay: Checkerboard combination assay with Ciprofloxacin; type: cell-based, Staphylococcus aureus
A. baumannii [21] = assay: Checkerboard combination assay with Ciprofloxacin; type: cell-based
[22] = In vitro cytotoxicity on normal cell line; type: cell-based, rat; details: rat, H9C2 heart/myocardium cells
[23] = tested on: H9C2: rat heart/myocardium; assay: In vitro cytotoxicity on normal cell line; type: cell-based
S. epidermidis biofilm = assay: Staphylococcus biofilm mass reduction; type: cell-based; details: at their MIC
E. coli [24] = assay: Checkerboard combination assay with Ciprofloxacin; type: cell-based
B. subtilis = assay: Single-step resistance selection; type: cell-based; details: 4 × MIC, 48 h
E. coli (MDR00501) [25] = assay: MIC and MBC by broth microdilution; type: cell-based
RBCs = assay: Hemolytic assay; type: cell-based; details: human RBCs; compounds 1.0 mg/mL; Triton X-100 0.1% v/v; 37 °C, 35 min
S. aureus biofilm = assay: Staphylococcus biofilm mass reduction; type: cell-based; details: at their MIC
C. albicans200 [26] = assay: Checkerboard combination assay with Ketoconazole; type: cell-based, Candida albicans
[27] = target: T1, dihydrofolate reductase (DHFR) (Homo sapiens, UniProt P00374); assay: DHFR inhibition; type: biochemical
T1 sequence (P00374 1-187): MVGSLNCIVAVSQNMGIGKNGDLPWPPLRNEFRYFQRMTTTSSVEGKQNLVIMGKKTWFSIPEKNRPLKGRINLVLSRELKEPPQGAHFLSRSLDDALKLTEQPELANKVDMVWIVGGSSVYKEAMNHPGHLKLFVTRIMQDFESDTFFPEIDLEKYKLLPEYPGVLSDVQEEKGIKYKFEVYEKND

K. pneumoniae (MDR00244) [28] = assay: MIC and MBC by broth microdilution; type: cell-based; details: ratio in parentheses
E. coli DNA gyrase = E. coli DNA gyrase (Escherichia coli, UniProt P0AES4+P0AES6); assay: DNA gyrase inhibition; type: biochemical
B. subtilis (MDR00423) [29] = assay: MIC and MBC by broth microdilution; type: cell-based
E. coli [30] = assay: Single-step resistance selection; type: cell-based; details: 4 × MIC, 48 h
[31] = In vitro cytotoxicity on normal cell line; type: cell-based, green monkey; details: green monkey, Vero kidney cells
[32] = tested on: Vero: green monkey kidney; assay: In vitro cytotoxicity on normal cell line; type: cell-based
S. epidermidis = assay: Single-step resistance selection; type: cell-based, Staphylococcus epidermidis; details: 4 × MIC, 48 h
[33] = Candida albicans, read-out: Inhibition Zone (IZ)

Sequence of E. coli DNA gyrase (P0AES4 whole entry, one chain of several): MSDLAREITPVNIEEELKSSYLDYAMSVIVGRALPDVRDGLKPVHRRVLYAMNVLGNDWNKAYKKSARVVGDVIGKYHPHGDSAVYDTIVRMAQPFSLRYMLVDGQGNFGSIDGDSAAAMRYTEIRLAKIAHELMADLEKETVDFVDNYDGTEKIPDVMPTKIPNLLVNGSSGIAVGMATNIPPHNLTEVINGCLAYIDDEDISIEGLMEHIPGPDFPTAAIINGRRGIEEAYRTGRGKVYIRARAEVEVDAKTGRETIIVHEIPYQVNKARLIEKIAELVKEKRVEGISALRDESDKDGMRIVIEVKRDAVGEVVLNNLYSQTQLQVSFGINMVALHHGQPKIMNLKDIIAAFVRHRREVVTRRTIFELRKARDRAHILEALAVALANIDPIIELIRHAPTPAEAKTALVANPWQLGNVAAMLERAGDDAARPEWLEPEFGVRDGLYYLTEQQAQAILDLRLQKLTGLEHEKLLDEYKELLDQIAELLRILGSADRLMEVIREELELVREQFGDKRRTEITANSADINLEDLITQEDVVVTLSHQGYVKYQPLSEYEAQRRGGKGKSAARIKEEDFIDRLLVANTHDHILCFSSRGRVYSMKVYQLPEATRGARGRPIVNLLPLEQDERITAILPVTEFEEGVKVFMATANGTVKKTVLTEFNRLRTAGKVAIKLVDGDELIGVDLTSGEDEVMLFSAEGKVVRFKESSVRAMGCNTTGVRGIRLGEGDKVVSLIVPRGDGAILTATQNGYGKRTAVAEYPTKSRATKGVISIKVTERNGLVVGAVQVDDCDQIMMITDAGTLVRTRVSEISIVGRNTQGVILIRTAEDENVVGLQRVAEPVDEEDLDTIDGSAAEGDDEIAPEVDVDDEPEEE

N#CC=c1[nH]c(=O)c(=Cc2cn(-c3ccccc3)nc2-c2ccccc2)s1 [Compound 3a, 2-(5-((1,3-Diphenyl-1H-pyrazol-4-yl)methylene)-4-oxothiazolidin-2-ylidene)acetonitrile]
Inhibition Zone (IZ) (S. aureus (MDR00231) [1]): -ve
Inhibition Zone (IZ) (K. pneumoniae (MDR00244) [2]): -ve
Inhibition Zone (IZ) (B. subtilis (MDR00423) [3]): -ve
Inhibition Zone (IZ) (A. baumannii (MDR00521) [4]): -ve
Inhibition Zone (IZ) [5]: -ve
Inhibition Zone (IZ) [6]: -ve
Inhibition Zone (IZ) (E. coli (MDR00501) [7]): -ve
Inhibition Zone (IZ) [8]: -ve

Cc1c(NC(=O)CC2=NC(=O)CS2)c(=O)n(-c2ccccc2)n1C [Compound 10, N-(1,5-Dimethyl-3-oxo-2-phenyl-2,3-dihydro-1H-pyrazol-4-yl)-2-(4-oxo-4,5-dihydrothiazol-2-yl)acetamide]
mutation frequency, range over panel [9]: 2.41 × 10^–8 to 3.50 × 10^–8
Selectivity index against DHFR ([10]; IC50 of BNL / IC50 of DHFR): 69.64
Selectivity index against DNA gyrase ([10]; IC50 of BNL / IC50 of DNA gyrase): 3.42
IC50 at 72 h [11]: 98.9 ± 1.54 µM
MBC/MIC ([12]; S. epidermidis, ratio in parentheses): 1
MIC ([12]; Staphylococcus epidermidis, read-out: MIC (mean ± SEM), S. epidermidis, broth microdilution): 0.97 ± 0.4 µg/mL (≈ 2.82 µM)
Single-step resistance frequency (mutation frequency) (C. albicans100): 3.33 × 10^–8
MBC/MIC (A. baumannii (MDR00521) [13]): 0.5
Single-step resistance frequency (mutation frequency) (C. albicans200 [14]): 3.50 × 10^–8
Single-step resistance frequency (mutation frequency) (S. aureus [15]): 2.41 × 10^–8
zone of inhibition at 100000 µg/mL (S. aureus (MDR00231) [1]; Staphylococcus aureus, read-out: Inhibition Zone (IZ)): 27 ± 0.21 mm
MBC/MIC (S. aureus (MDR00231) [16]; S. aureus, ratio in parentheses): 1
MIC (S. aureus (MDR00231) [16]; Staphylococcus aureus, read-out: MIC (mean ± SEM), S. aureus, broth microdilution): 0.95 ± 0.2 µg/mL (≈ 2.76 µM)
MFC/MIC ([17]; C. albicans200, ratio in parentheses): 1
MIC ([17]; Candida albicans, read-out: MIC (mean ± SEM), C. albicans200, broth microdilution): 0.47 ± 0.1 µg/mL (≈ 1.36 µM)
MFC/MIC ([18]; C. albicans100, ratio in parentheses): 2
MIC ([18]; Candida albicans, read-out: MIC (mean ± SEM), C. albicans100, broth microdilution): 0.95 ± 0.3 µg/mL (≈ 2.76 µM)
Single-step resistance frequency (mutation frequency) (A. baumannii [19]): 2.53 × 10^–8
Single-step resistance frequency (mutation frequency) (K. pneumoniae): 2.61 × 10^–8
MIC, range over panel (Gram-negative bacteria): 0.43 to 0.98 µg/mL
combination effect (S. aureus [20]): S (S: synergism)
fractional inhibitory concentration index (FICI) (S. aureus [20]): 0.5
combination effect (A. baumannii [21]): S (S: synergism)
fractional inhibitory concentration index (FICI) (A. baumannii [21]): 0.5
IC50 at 72 h [22]: 99.8 ± 1.84 µM
Selectivity index against DHFR ([23]; IC50 of H9C2 / IC50 of DHFR): 70.26
Selectivity index against DNA gyrase ([23]; IC50 of H9C2 / IC50 of DNA gyrase): 3.45
reduction of biofilm formation (S. epidermidis biofilm): 53.3%
zone of inhibition at 100000 µg/mL [5, 33]: 30 ± 0.55 mm
combination effect (E. coli [24]): S (S: synergism)
fractional inhibitory concentration index (FICI) (E. coli [24]): 0.5
zone of inhibition at 100000 µg/mL [6, 33]: 28 ± 0.88 mm
Single-step resistance frequency (mutation frequency) (B. subtilis): 3.50 × 10^–8
MBC/MIC (E. coli (MDR00501) [25]; E. coli, ratio in parentheses): 1
MIC (E. coli (MDR00501) [25]; Escherichia coli, read-out: MIC (mean ± SEM), E. coli, broth microdilution): 0.46 ± 0.4 µg/mL (≈ 1.34 µM)
%lysis of RBCs (RBCs): 11.66% and 11.66 ± 0.231%
reduction of biofilm formation (S. aureus biofilm): 55.6%
combination effect (C. albicans200 [26]): S (S: synergism)
fractional inhibitory concentration index (FICI) (C. albicans200 [26]): 0.5
IC50 [27]: 1.42 ± 0.23 µM
MBC/MIC (K. pneumoniae (MDR00244) [28]): 1
IC50 (E. coli DNA gyrase): 28.88 ± 0.12 µM
MBC/MIC (B. subtilis (MDR00423) [29]; B. subtilis, ratio in parentheses): 2
MIC (B. subtilis (MDR00423) [29]; Bacillus subtilis, read-out: MIC (mean ± SEM), B. subtilis, broth microdilution): 0.98 ± 0.1 µg/mL (≈ 2.85 µM)
Single-step resistance frequency (mutation frequency) (E. coli [30]): 2.60 × 10^–8
IC50 at 72 h [31]: 70.06 ± 0.34 µM
Selectivity index against DHFR ([32]; IC50 of Vero / IC50 of DHFR): 49.33
Selectivity index against DNA gyrase ([32]; IC50 of Vero / IC50 of DNA gyrase): 2.42
zone of inhibition at 100000 µg/mL (E. coli (MDR00501) [7]; Escherichia coli, read-out: Inhibition Zone (IZ)): 25 ± 0.22 mm
Single-step resistance frequency (mutation frequency) (S. epidermidis): 3.00 × 10^–8
zone of inhibition at 100000 µg/mL ([8]; Staphylococcus epidermidis, read-out: Inhibition Zone (IZ)): 26 ± 0.4 mm

Cc1c(NN=C2SC3=C(C#N)C(c4ccccc4)C(C#N)=C(N)N3C2=O)c(=O)n(-c2ccccc2)n1C (stereo not drawn) [Compound 16a, 5-Amino-2-(2-(1,5-dimethyl-3-oxo-2-phenyl-2,3-dihydro-1H-pyrazol-4-yl)hydrazono)-3-oxo-7-phenyl-2,3-dihydro-7H-thiazolo[3,2-a]pyridine-6,8-dicarbonitrile]
Inhibition Zone (IZ) (S. aureus (MDR00231) [1]): -ve
Inhibition Zone (IZ) (K. pneumoniae (MDR00244) [2]): -ve
Inhibition Zone (IZ) (B. subtilis (MDR00423) [3]): -ve
Inhibition Zone (IZ) (A. baumannii (MDR00521) [4]): -ve
Inhibition Zone (IZ) [5]: -ve
Inhibition Zone (IZ) [6]: -ve
Inhibition Zone (IZ) (E. coli (MDR00501) [7]): -ve
Inhibition Zone (IZ) [8]: -ve

Cc1c(NN=C2SC3=C(C#N)C(c4ccc(Cl)cc4)C(C#N)=C(N)N3C2=O)c(=O)n(-c2ccccc2)n1C (stereo not drawn) [Compound 16b, 5-Amino-7-(4-chlorophenyl)-2-(2-(1,5-dimethyl-3-oxo-2-phenyl-2,3-dihydro-1H-pyrazol-4-yl)hydrazono)-3-oxo-2,3-dihydro-7H-thiazolo[3,2-a]pyridine-6,8-dicarbonitrile]
Inhibition Zone (IZ) (S. aureus (MDR00231) [1]): -ve
Inhibition Zone (IZ) (K. pneumoniae (MDR00244) [2]): -ve
Inhibition Zone (IZ) (B. subtilis (MDR00423) [3]): -ve
Inhibition Zone (IZ) (A. baumannii (MDR00521) [4]): -ve
Inhibition Zone (IZ) [5]: -ve
Inhibition Zone (IZ) [6]: -ve
Inhibition Zone (IZ) (E. coli (MDR00501) [7]): -ve
Inhibition Zone (IZ) [8]: -ve
